Where two headings read alike, the source gives them in different places.
Experiments:
[1] = Macaque (NHP) pharmacokinetic study after vaginal film administration: vaginal swabs, plasma, PBMCs
Method: In NHP film evaluations, both vaginal fluid and blood components (e.g. plasma) samples were collected for at least 31 days post-film administration to assess drug levels and evaluate vaginal release and systemic exposure. […] In study 2, MPT films with increased LNG dose (e.g., 3.5 mg vs. 1 mg) were evaluated. […] Study 3 utilized the same formulation developed for Study 2 by simply replacing LNG with ENG.
The developed MPT film was administered in six macaques.

[2] = macaques; cited from earlier work
[3] = EFdA-TP elimination half-life in macaques; assay type: in vivo; details: macaques vs humans
[4] = humans; cited from earlier work
[5] = In vitro drug release of APIs from the extended-release polymer matrix film (Eudragit with PLGA); assay type: physicochemical; details: FIG. 3; API in Eudragit/PLGA film
Method: An initial screening study was conducted to identify suitable polymers for this application.
Based on visual disintegration it was identified that only the combination of PLGA and Eudragit polymers was successful in extending the disintegration time (FIG. 2). […] This burst release could be attributed to the hydrophilic nature of the drug.

Compound: C#C[C@]1(CO)O[C@@H](n2cnc3c(N)nc(F)nc32)C[C@@H]1O [EFdA, 4′-Ethynyl-2-fluoro-2′-deoxyadenosine]
- detectable levels present in the vaginal fluid until day ([1]; female, macaque, in vivo): 31 days
- detected in swabs until day ([1]; female, macaque, in vivo): 31 days
- duration of release, vaginal swab and plasma levels ([1]; female, macaque, in vivo): 30 days
- animals above BLQ ([1]; female, macaque, in vivo, 28 day): 2/3
- animals above BLQ ([1]; female, macaque, in vivo, 31 day): 1/3
- drug levels in vivo ([1]; in vivo): sustained drug levels
- plasma half-life compared with previously reported values after oral administration ([1]; in vivo): significantly higher

Compound: C#C[C@]1(COP(=O)(O)OP(=O)(O)OP(=O)(O)O)O[C@@H](n2cnc3c(N)nc(F)nc32)C[C@@H]1O [EFdA-TP]
- elimination half-life [2]: ~40 h
- fold shorter elimination half-life in macaques than in humans [3]: 4-5 times
- day until which PBMC levels were above the target (0.05 pmol/10^6 PBMCs) ([1]; MPT film LNG 16 mg, EFdA 14 mg, six macaques): ≥ 14 day
- average concentration in PBMCs, remained detectable until day 31 ([1]; MPT film LNG 16 mg, EFdA 14 mg, six macaques, day 31): 0.018 pmol
- elimination half-life [4]: 190 h

Compound: C#C[C@]1(O)CC[C@H]2[C@@H]3CCC4=CC(=O)CC[C@@H]4[C@H]3C(=C)C[C@@]21CC [ENG, etonogestrel]
- drug levels in vivo ([1]; in vivo): sustained drug levels

Compound: C=C1[C@H](CO)[C@@H](O)C[C@@H]1n1cnc2c(=O)[nH]c(N)nc21 [ETV, Entecavir]
- drug release profile in the extended-release polymer matrix [5]: burst release

Compound: C#C[C@]1(O)CC[C@H]2[C@@H]3CCC4=CC(=O)CC[C@@H]4[C@H]3CC[C@@]21CC [LNG, levonorgestrel]
- animals above BLQ ([1]; female, macaque, in vivo): 0/3
- animals with swab levels above BLQ ([1]; female, macaque, in vivo): 2/3
- detectable levels present in the vaginal fluid until day ([1]; female, macaque, in vivo): 31 days
- duration of release, vaginal swab and plasma levels ([1]; female, macaque, in vivo): 30 days
- animals above BLQ ([1]; female, macaque, in vivo, 7 day): 1/3
- plasma half-life compared with previously reported values after oral administration ([1]; in vivo): significantly higher

Compound: CCN1C[C@H](C)n2c(c(O)c3c(=O)n(Cc4ccc(F)c(Cl)c4)nc(C(=O)NC)c32)C1=O [MK-2048]
- drug release profile in the extended-release polymer matrix [5]: extended release

Compound: CC(C)OC(=O)[C@H](C)N[P@](=O)(OC[C@H]1O[C@@H](n2ccc(=O)[nH]c2=O)[C@](C)(F)[C@@H]1O)Oc1ccccc1 [SBV, Sofosbuvir]
- drug release profile in the extended-release polymer matrix [5]: burst release
